Results: US9981972B2, “N-hydroxy bicyclic hydantoin carbamates as tools for identification of serine hydrolase targets” (ABIDE THERAPEUTICS, INC., priority 2014, dated 2018)

Key:
Assay in all cases: Gel-based competitive ABPP in vitro, mouse brain membrane proteome
Assay type in all cases: biochemical
[1] = molecular target: T1, FAAH (Mus musculus, UniProt O08914); conditions: 10 μM, mouse brain (mem) proteome
T1 construct: from tissue; host or cells: mouse brain, membrane fraction
T1 sequence (O08914 1-579): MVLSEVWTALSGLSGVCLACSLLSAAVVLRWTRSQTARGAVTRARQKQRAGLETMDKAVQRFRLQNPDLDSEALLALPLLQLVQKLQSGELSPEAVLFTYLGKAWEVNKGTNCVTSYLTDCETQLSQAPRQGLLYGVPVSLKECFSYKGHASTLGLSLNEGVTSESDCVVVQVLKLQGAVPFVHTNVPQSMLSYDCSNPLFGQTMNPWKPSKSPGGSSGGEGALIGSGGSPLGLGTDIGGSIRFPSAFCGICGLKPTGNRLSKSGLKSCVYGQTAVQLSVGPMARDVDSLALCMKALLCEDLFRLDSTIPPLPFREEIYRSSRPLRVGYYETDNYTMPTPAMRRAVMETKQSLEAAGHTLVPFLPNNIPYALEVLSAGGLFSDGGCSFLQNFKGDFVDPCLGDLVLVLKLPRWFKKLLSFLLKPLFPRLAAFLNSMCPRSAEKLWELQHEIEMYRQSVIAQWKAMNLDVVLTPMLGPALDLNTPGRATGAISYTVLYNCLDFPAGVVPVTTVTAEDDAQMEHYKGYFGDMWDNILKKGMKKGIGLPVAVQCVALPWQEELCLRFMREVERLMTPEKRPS
Experimental: (§1) Assay Overview: The purpose of this assay was to determine whether test compounds can inhibit LYPLA1 and LYPLA2 in a complex proteomic lysate and to assess anti-target inhibition using a competitive activity-based proteomic profiling (ABPP) assay. In this assay, a complex proteome endogenously expressing LYPLA1/2 was incubated with test compound followed by reaction with a rhodamine-conjugated fluorophosphonate (FP-Rh) serine-hydrolase specific activity-based probe. The reaction products were separated by SDS-PAGE and visualized in-gel using a flatbed fluorescence scanner. The percentage activity remaining was determined by measuring the integrated optical density of the bands. […] Percent inhibition was calculated relative to a DMSO (no compound) control.
(§2) Protocol Summary: Mouse brain membrane proteome (50 μL reaction volume, 1 mg/mL in DPBS) was treated with 0.1-100 μM test compound (1 μL of a 50× stock in DMSO) for 30 minutes at 37° C. FP-Rh (1 μL of 50× stock in DMSO, Thermo #88318) was added to a final concentration of 2 μM. The reactions were incubated for 30 minutes at 25° C., quenched with 16 μL 4×SDS-PAGE loading buffer (reducing), separated by SDS-PAGE and visualized by in-gel fluorescent scanning. The percentage activity remaining was determined by measuring the integrated optical density of the bands relative to a DMSO-only (no compound) control. Assay Cutoff: Compounds with ≥50% inhibition of targets at 1 μM test compound concentration were considered active.
(§3) Assay Overview: The purpose of this assay was to determine IC50 values of powder samples of test compounds for enzyme of interest activity, and anti-targets in a complex proteomic lysate using a gel-based competitive ABPP assay. In this assay, a complex proteome was incubated with test compound followed by reaction with FP-Rh and SDS-PAGE analysis as described above.
(§4) Protocol Summary: Soluble HeLa cell proteome (50 μL reaction volume, 1 mg/mL in DPBS) or mouse brain membrane proteome (50 μL reaction volume, 1 mg/mL in DPBS) was treated with varying concentrations of test compound (1 μL of a 50× stock in DMSO) for 30 minutes at 37° C. FP-Rh (1 μL of 50× stock in DMSO) was added to a final concentration of 2 μM. The reaction was incubated for 30 minutes at 25° C., quenched with 16 μL 4×SDS-PAGE loading buffer (reducing), separated by SDS-PAGE and visualized by in-gel fluorescent scanning. The percentage activity remaining was determined by measuring the integrated optical density of the enzymes of interest, and anti-target bands relative to a DMSO-only (no compound) control. IC50 values were determined from dose-response curves from three replicates at each inhibitor concentration: 1, 10, 100, 1000, 10000 nM and 0.01, 0.1, 1, 10, 100, 1000, 10000, 50000, and 100000 nM.

[2] = molecular target: T2, ABHD6 (Mus musculus, UniProt Q8R2Y0); conditions: 1 μM, mouse brain (mem) proteome
T2 construct: from tissue; host or cells: mouse brain, membrane fraction
T2 sequence (Q8R2Y0 1-336): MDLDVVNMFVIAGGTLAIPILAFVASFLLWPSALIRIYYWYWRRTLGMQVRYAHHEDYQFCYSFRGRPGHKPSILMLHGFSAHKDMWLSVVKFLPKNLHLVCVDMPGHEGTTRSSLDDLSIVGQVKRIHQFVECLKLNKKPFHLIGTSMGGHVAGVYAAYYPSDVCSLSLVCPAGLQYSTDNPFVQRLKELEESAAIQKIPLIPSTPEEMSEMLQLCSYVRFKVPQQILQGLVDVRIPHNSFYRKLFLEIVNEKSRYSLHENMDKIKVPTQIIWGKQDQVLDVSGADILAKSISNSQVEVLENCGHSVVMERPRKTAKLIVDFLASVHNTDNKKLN
Experimental: as §1, §2, §3, §4

[3] = molecular target: T3, PLA2G7 (Mus musculus, UniProt Q60963); conditions: mouse brain (mem) proteome
T3 construct: from tissue; host or cells: mouse brain, membrane fraction
T3 sequence (Q60963 22-440): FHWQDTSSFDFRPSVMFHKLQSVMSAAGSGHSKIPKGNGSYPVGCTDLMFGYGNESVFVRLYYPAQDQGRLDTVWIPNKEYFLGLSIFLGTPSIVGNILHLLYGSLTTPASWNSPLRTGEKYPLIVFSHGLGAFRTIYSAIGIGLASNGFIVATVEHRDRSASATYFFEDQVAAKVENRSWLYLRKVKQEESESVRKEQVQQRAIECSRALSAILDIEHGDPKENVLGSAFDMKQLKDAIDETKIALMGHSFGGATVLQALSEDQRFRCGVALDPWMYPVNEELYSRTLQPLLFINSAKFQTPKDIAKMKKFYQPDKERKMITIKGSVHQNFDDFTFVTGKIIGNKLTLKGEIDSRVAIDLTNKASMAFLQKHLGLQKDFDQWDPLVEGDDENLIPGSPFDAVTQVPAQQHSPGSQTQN
Experimental: as §1, §2

FAAH in vitro enzyme activity, % @ 10 μM [1] [% @] | ABHD6 in vitro enzyme activity, % @ 1 μM [2] [% @] | PLA2G7 in vitro enzyme activity, % @ 10 μM [3] [% @] | PLA2G7 in vitro enzyme activity, % @ 1 μM ([3]; 1 μM) [% @] | Structure (SMILES)
50 | 100 | 0 | – | C#Cc1ccc(CCC2CCN(C(=O)ON3C(=O)C4CN(C(=O)N5CCOCC5)CCN4C3=O)CC2)cc1 (stereo not drawn) [Compound 53, 7-(morpholine-4-carbonyl)-1,3-dioxo-hexahydroimidazo[1,5-a]pyrazin-2(3H)-yl 4-(4-ethynylphenethyl)piperidine-1-carboxylate]
0 | 100 | – | 100 | C#CCOc1ccc(N2CCN(C(=O)ON3C(=O)[C@@H]4CN(Cc5ccc(Oc6ccccc6)cc5)CCN4C3=O)CC2)cc1 [Compound 44, (S)-1,3-dioxo-7-(4-phenoxybenzyl)-hexahydroimidazo[1,5-a]pyrazin-2(3H)-yl 4-(4-(prop-2-ynyloxy)phenyl)piperazine-1-carboxylate]
50 | 100 | 100 | – | C#Cc1ccc(CCC2CCN(C(=O)ON3C(=O)[C@H]4CN(C(=O)N5CCOCC5)CCN4C3=O)CC2)cc1 [Compound 49, (R)-7-(morpholine-4-carbonyl)-1,3-dioxo-hexahydroimidazo[1,5-a]pyrazin-2(3H)-yl 4-(4-ethynylphenethyl)piperidine-1-carboxylate]
